Data taken from US9840532B2, “5′-substituted nucleoside compounds” (Eli Lilly and Company, priority 2015, dated 2017).

Tested on: PRMT5-mediated retention of exon 6 in the processed MDM4 mRNA in A375 tumor cells
Experiment: Mouse A375 Xenograft Tumor MDM4 Exon5/6 RNA Splicing Assay
Assay type: in vivo
Settings: A-375, PO given QD or BID, tumors 4 hr after last dose, 4 days of dosing, read-out: dose achieving 50% effect (ED50)
Protocol: The purpose of this assay is to measure the ability of a test compound to inhibit PRMT5-mediated retention of exon 6 in the processed MDM4 mRNA in A375 tumor cells in a mouse tumor xenograft model. This assay represents the effect of a test compound on specific PRMT5-mediated splicing events in tumors in an animal model.
Grow A375 cells in medium (DMEM high glucose/10% Hi FBS) at 37° C. in an incubator (5% CO2) for 18-24 hr. Mix the cells with MATRIGEL® (1:1) and implant the cells (5×10^6/animal) subcutaneously into the rear flank of the mice (female nude mice, Harlan). The implanted tumor cells grow as solid tumors. Measure the tumor volume and body weight twice a week with a caliper. After tumor volume reaches approximately 200-250 mm^3 (about 20 days after implant), randomize the animals, and group them into compound treatment groups. Administer the test compounds (formulated in SWFI with 1% HEC/0.25% TWEEN® 80/0.05% Antifoam) by oral gavage. Test compound doses are in the range of 3 to 100 mg/kg. Sacrifice mice 4 hr after the last dose (4 days of dosing).
Harvest tumor tissues and homogenize as described below. Place tumor samples in a bowl and add 1 mL of liquid N2. Squash the tumor in the bowl. Transfer small pieces of tumor (about 20 mg each) into 2 lysing matrix D tubes (MPBIO cat. #6913-250). Use one tube for RNA processing and the other for protein lysate preparation. For RNA processing, homogenize the tumor tissues in an RNEASY® Mini Kit (QIAGEN-74104) extraction buffer (0.5 mL each) for 30 seconds using a Bio101 FastPrep FP120 homogenizer (setting 6). Total RNA is purified with QUARTZY® RNEASY® Mini Kit −50 (QIAGEN-74104, RNEASY® Mini Handbook, Fourth Edition, June 2012). Check the RNA concentration to ensure OD 260/280 […]≧1.9. For cDNA synthesis use A&B APPLIED BIOSYSTEMS®, High Capacity cDNA Reverse Transcription Kit (cat. #4368813). Use 1 μg total RNA (10 μL) in each RT reaction volume of 20 μL, containing 10×RT Buffer—2.0 μL; 25×dNTP Mix (100 mM)—0.8 μL; 10×RT Random Primers—2.0 μL; MULTISCRIBE™ Reverse Transcriptase—1.0 μL; Nuclease-free H2O—[…]. […]

SMILES | ED50 [mg/kg]
Nc1ncnc2c1ccn2[C@@H]1O[C@H]([C@H](O)c2ccc(Cl)cc2)[C@@H](O)[C@H]1O [Example 1, (2R,3R,4S,5R)-2-(4-Aminopyrrolo[2,3-d]pyrimidin-7-yl)-5-[(R)-(4-chlorophenyl)-hydroxy-methyl]tetrahydrofuran-3,4-diol] | ≤ 30
Nc1ncnc2c1ccn2[C@@H]1O[C@H]([C@H](O)c2ccccc2)[C@@H](O)[C@H]1O [Example 2, (2R,3R,4S,5R)-2-(4-Aminopyrrolo[2,3-d]pyrimidin-7-yl)-5[(R)-hydroxy(phenyl)methyl]tetrahydrofuran-3,4-diol] | ≤ 30
C[C@@](O)(c1ccc(Cl)cc1)[C@H]1O[C@@H](n2ccc3c(N)ncnc32)[C@H](O)[C@@H]1O [Example 3, (2R,3R,4S,5S)-2-(4-Aminopyrrolo[2,3-d]pyrimidin-7-yl)-5-[(1R)-1-(4-chlorophenyl)-1-hydroxy-ethyl]tetrahydrofuran-3,4-diol] | ≤ 30
